Test results from patent publication US9351947B2, “Use of catecholamines and related compounds as anti-angiogenic agents” (National Research Council of Canada, priority 2007, dated 2016).
Entries after “also recorded” stand apart in the source; their conditions may differ. Where two headings read alike, the source gives them in different places. Blank lines part the entries; values can stand above or below the molecule they belong to.

Key:
[1] = system: HUVECs; test: Matrigel endothelial cell capillary-tube formation assay; assay type: cell-based, human; conditions: 22 h; for Activity (anti-angiogenicity): measured at 20 μM, HUVECs on Matrigel
Description: HUVECs were purchased from Cedarlane Laboratories (Burlington, Canada) and maintained in Endothelial Cell Basal Medium-2 (EBM-2) supplemented with EGM-2 growth factor mixture (Clonetics) and 2% Foetal bovine serum. The cells were cultured at 37° C. under a humidified 95%/5% (v/v) mixture of air and CO2.
Matrigel endothelial cell tube formation assays were performed using BD Matrigel™ (Becton, Dickinson). BD Matrigel™ was thawed at 4° C., and 150 μL were quickly added to each well of a 48-well plate and allowed to solidify for 60 min at 37° C. HUVECs (7×10^4 cells/mL) In EC basal medium-2 (EBM-2) were seeded 250 μL per well onto the surface of the solid BD Matrigel™ in the presence of the compounds to be tested. The cells were incubated for 22 h at […] in a 5% CO2 incubator. Tube formation was monitored by using a Leitz Labovert (Leitz, Wetzlar, Germany) inverted microscope. Two randomly selected two microscopic fields were photographed with a digital camera (Nikon, COOLPICKS 995). The total length of tube structures in each photograph was measured using ImageJ™ free software (http://rsb.info.nih.gov/ij/) and was normalized to that of control with no test compound. Each reported value represents the average of total six photographs from three independent experiments.

[2] = system: HUVECs; test: Invasion of HUVECs through Matrigel-coated filter (Matrigel Invasion Chambers); assay type: cell-based, human; conditions: measured at 20 μM; HUVECs
Description: HUVECs were purchased from Cedarlane Laboratories (Burlington, Canada) and maintained in Endothelial Cell Basal Medium-2 (EBM-2) supplemented with EGM-2 growth factor mixture (Clonetics) and 2% Foetal bovine serum. The cells were cultured at 37° C. under a humidified 95%/5% (v/v) mixture of air and CO2. Invasion of endothelial cells was measured using BD BioCoatTM Growth Factor Reduced MatrigelTM Invasion Chambers (Beckton-Dickinson; […]). EBM-2 medium (500 μL each) was placed into the lower wells. HUVECs (2.5×10^4) in EBM-2 serum-free medium (500 μL) were seeded into each of the upper wells and incubated in the presence of a test compound. HUVECs were allowed to migrate for 36 h at 37° C. in an atmosphere of 95% air/5% CO2. HUVECs that remained on the upper surface of the filter were removed using a cotton swab. HUVECs that had migrated to the lower surface of the filters were fixed with methanol, stained with 0.1% crystal violet/20% (v/v) methanol and examined using a Leitz Labovert (Leitz, Wetzlar, Germany) inverted microscope after mounting on a slide. Three randomly selected microscopic fields were digitally captured using a Nikon […] 995 digital camera and the number of HUVECs in each photograph were directly counted. Each reported value represents the average and standard deviation of a total […] from two independent experiments.

[3] = system: angiogenesis; conditions: cited from earlier work; for Activity (angiogenic / anti-angiogenic): Ref. Thaker et al., 2006 (a), Ref. Basu et al., 2001 (b)
[4] = 2.47% instilled to normal human eyes; cited from earlier work
[5] = acute intravenous, mice; cited from earlier work
[6] = Optical stability (racemization) in eye drop formulations, 10 days at 55° C., chiral HPLC; assay type: physicochemical; conditions: for % optical purity: 3.0 mg/mL, pH 6.0, starting material 99.87%
Description: The optical isomers of (S)-isoproterenol bitartrate and (S)-isoproterenol dipivalate hydrochloride were separated by HPLC using Shiseido chiral CD-Ph column (250×4.6 mm; 5 μm; isocratic 60:40 of 0.5 M sodium perchlorate/water and acetonitrile; flow rate, 1.0 mL/min). The elution profile was monitored by the absorption at 223 nm for isoproterenol bitartrate and 264 nm for isoproterenol dipivalate hydrochloride. The optical impurities were quantitated by the absorbance at 223 nm for isoproterenol bitartrate and 264 nm for isoproterenol dipivalate hydrochloride and by using a curve fitting software TABLECurve2D (Systat). The impurities of (R)-isoproterenol bitartrate and (R)-isoproterenol dipivalate hydrochloride were estimated as […], respectively. Thus, the racemization induced during synthesis and purification was minimal, if it occurred.
Table 2 describes the optical purities of (S)-isoproterenol and (S)-isoproterenol dipivalate after incubation in various eye drop formulations for 10 days at 55° C. and compared with those before incubation. The incubation for 10 days at 55° C. corresponds to the incubation for 167 days at 22° C.

[7] = system: retinal capillaries; test: Glycation of retinal capillaries in diabetic rats (anti-glycated BSA / anti-lectin staining); assay type: in vivo, Sprague-Dawley rats
Description: Animal weights were monitored every week.
The effects of (S)-isoproterenol on diabetic retinopathy were studied by staining retinal capillaries with antibodies against lectin. The capillary density at the retinal center, corresponding to the macular of the human eye, was analyzed.
Diabetes induces glycation in retina. Since (S)-isoproterenol is a potent anti-glycation agent, penetration of (S)-isoproterenol reduces glycation in diabetic retinal capillaries. Thus, the retinas, which were stained with antibodies against lectin, were also stained with antibodies against glycated bovine serum albumin, and the degree of glycation of retinal capillaries was analyzed.

[8] = Storage stability of the eye drop at 4° C. (HPLC profiles); assay type: physicochemical; conditions: 0.10% (w/v) eye drop, pH 5.5, one month of storage at 4° C.
[9] = in vivo; cited from earlier work

Compound: CNCC(O)c1ccc(O)c(O)c1 (racemic) [(R,S)-Adrenaline]
Activity (anti-angiogenicity) [1]: no anti-angiogenic activity
Activity (anti-invasion) [2]: Non-antiinvasive
Activity (angiogenic / anti-angiogenic) [3]: Angiogenic

Compound: CC(C)(C)NCC(O)c1ccc(O)c(O)c1 (racemic) [(R,S)-N-tert-butylnoradrenaline]
Activity (anti-angiogenicity) [1]: Anti-angiogenic
Activity (anti-angiogenicity) ([1]; listed as (R,S)—N-tert-butylnoradrenaline): anti-angiogenic activity

Compound: CC(C)NCC(O)c1ccc(O)c(O)c1 (racemic) [(R,S)-isoproterenol, reference compound]
Activity (anti-angiogenicity) [1]: did not show anti-angiogenic activity; also recorded: no anti-angiogenic activity; also recorded: Non-antiangiogenic
duration of reduction in ocular tension [4]: at least 12 h
reduction in ocular tension [4]: 20%

Compound: CCC(NC(C)C)C(O)c1ccc(O)c(O)c1 (racemic) [Isoetharine, 1-(3,4-dihydroxyphenyl)-2-(Isopropylamino)-1(R,S)-butanol]
Activity (anti-angiogenicity) [1]: Anti-angiogenic
Activity (anti-angiogenicity) ([1]; listed as isoetharine): anti-angiogenic activity

Compound: CO[C@@H](CNC(C)C)c1ccc(O)c(O)c1 [(R)-1-(N-isopropyl)-3-methoxydopamine]
Activity (anti-angiogenicity) [1]: Anti-angiogenic

Compound: NC[C@H](O)c1ccc(O)c(O)c1 [(R)-Noradrenaline]
Activity (angiogenic / anti-angiogenic) [3]: Angiogenic^a

Compound: CC(C)NC[C@H](O)c1ccc(O)c(O)c1 [(R)-isoproterenol]
LD50 [5]: 57 ± 2 mg/kg
Activity (anti-invasion) [2]: did not show any anti-invasion activity; also recorded: Non-antiinvasive
Activity (angiogenic / anti-angiogenic) [3]: Angiogenic
Activity (angiogenic / anti-angiogenic) ([3]; listed as (R)-Isoproterenol): angiogenic

Compound: CO[C@H](CNC(C)C)c1ccc(O)c(O)c1 [(S)-1-(N-isopropyl)-3-methoxydopamine]
Activity (anti-angiogenicity) [1]: Anti-angiogenic

Compound: CCNC[C@@H](O)c1ccc(O)c(O)c1 [(S)-N-ethylnoradrenaline]
Activity (anti-angiogenicity) [1]: Anti-angiogenic
Activity (anti-angiogenicity) ([1]; listed as (S)—N-ethylnoradrenaline): anti-angiogenic activity

Compound: CCCCNC[C@@H](O)c1ccc(O)c(O)c1 [(S)-N-n-butylnoradrenaline]
Activity (anti-angiogenicity) [1]: Anti-angiogenic
Activity (anti-angiogenicity) ([1]; listed as (S)—N-butylnoradrenaline): anti-angiogenic activity

Compound: CCCNC[C@@H](O)c1ccc(O)c(O)c1 [(S)-N-n-propylnoradrenaline]
Activity (anti-angiogenicity) [1]: Anti-angiogenic
Activity (anti-angiogenicity) ([1]; listed as (S)—N-propylnoradrenaline): anti-angiogenic activity

Compound: NC[C@@H](O)c1ccc(O)c(O)c1 [(S)-Noradrenaline, reference compound]
Activity (anti-angiogenicity) [1]: Non-antiangiogenic
Activity (anti-angiogenicity) ([1]; listed as (S)-noradrenaline): not anti-angiogenic

conversion to the (R)-isoform ([6]; 10 days at 55° C.): 0.02%
% optical purity ([6]; 10 days at 55° C., NaCl 8 mg/mL, Benzalkonium chloride 0.04 mg/mL, Tween 80 2.5 mg/mL): >99.90%
% optical purity ([6]; 10 days at 55° C., Povidone 2 mg/mL, Benzalkonium chloride 0.04 mg/mL, D-Mannitol 54.7 mg/mL): 99.90%
% optical purity ([6]; 10 days at 55° C., Povidone 2 mg/mL, D-Mannitol 54.7 mg/mL, Chlorobutanol 1 mg/mL, 2-hydroxypropyl cyclodextrin 10.1 mg/mL): 99.74%
% optical purity ([6]; 10 days at 55° C., Povidone 2 mg/mL, NaCl 8 mg/mL, Benzalkonium chloride 0.04 mg/mL, 2-hydroxypropyl cyclodextrin 10.1 mg/mL): 99.86%
average optical purity after incubating 10 days at 55° C. ([6]; average over the eye drop formulations): approximately 99.85±0.08%
optical purity after 2 years of storage at room temperature ([6]; extrapolated, from 99.87%): 99.78%
blood glucose level (Group II, non-diabetic rats receiving prodrug eye drop, 27 week period): 5.1 ± 0.4 mM
blood glucose level (Group IV, diabetic rats receiving prodrug eye drop, stabilized level): 27 ± 5 mM
degradation of the active ingredient in eye drop (HPLC profiles) [8]: No degradation
Compound: CC(C)NC[C@@H](O)c1ccc(OC(=O)C(C)(C)C)c(OC(=O)C(C)(C)C)c1 [(S)-isoproterenol dipivalate]
effect on glycation in retinal capillaries ([7]; 0.1% eye drop): significantly reduced the glycation in retinal capillaries
red fluorescence intensity of AGEs normalized by the retinal capillary density ([7]; 0.1% eye drop twice a day, P 0.068 vs diabetic rats with vehicle): 0.44±0.17

Compound: CNCC(O)c1ccc(OC(=O)C(C)(C)C)c(OC(=O)C(C)(C)C)c1 (centres unmarked) [Dipivefrin]
enhancement of ocular absorption versus adrenaline [9]: 17 time

Compound: NCCc1ccc(O)c(O)c1 [Dopamine]
potency (inhibition of capillary tube formation) ([1]; angiogenic assay condition used in FIG. 1, 1-50 μM): comparable potency
concentration showing effective anti-angiogenic activity ([3]; Basu et al., 2001): 1 µM
Activity (angiogenic / anti-angiogenic) [3]: Anti-angiogenic^b
